Read-outs that look alike come from different tables or passages of the source.
Legend:
A431/CCKBR cells [1] = test: Kinase inhibitor library screen: [177Lu]Lu-PP-F11N cell uptake; type: cell-based, human; conditions: ratio treatment/control; 10 μM inhibitor
A431/CCKBR cells [2] = test: CellTiter 96 AQueous (MTS) proliferation assay; type: cell-based, human; conditions: for Proliferation (ratio): ratio treatment/control, 10 μM inhibitor
A431/CCKBR cells [3] = test: Total protein concentration of cell lysates; type: cell-based, human
From the text: […]. […] […].

[4] = system: mTORC1-regulated phosphorylation of the ribosomal protein S6 at Ser235/236; test: WB analysis of phospho-S6; type: cell-based, human; conditions: A431/CCKBR cells, 100 nM RAD001 or 10 mM metformin
Experimental: Antibodies against phospho-S6 at S235/S236 (D57.2.2F), ERK1/2 (9102), phospho-ERK1/2 (T202/Y204), GAPDH (14C10) and HA-Tag (C29F4) were obtained from Cell Signaling Technology, whereas the anti-CCKBR (ab77077) was from Abcam. Cells were homogenized in lysis buffer (50 mM Tris-HCl pH 7.5, 150 mM NaCl, 1% Triton X, 0.1% SDS supplemented with 1 mM sodium orthovanadate, 1 mM NaF and protease inhibitor cocktail (Roche)). 50 μg of total protein lysates were separated by SDS-PAGE and transferred to PVDF membranes (Millipore) by electroblotting. Membranes were blocked with 5% skim milk in TBST (0.1% Tween 20) for 1 h, and incubated with 2% BSA in TBST overnight with the primary antibody followed by 2 h incubation with HRP-conjugated secondary antibody. Signals were produced by using a chemiluminescence reagent (ECL) and acquired by ImageQuant RT ECL Imager (GE Healthcare). Prior to CCKBR detection by WB, protein lysates were subjected to deglycosylation. Briefly, 18 μL of total protein lysates (50 µg) were mixed with 2 μL of 10× denaturing buffer (5% SDS, 0.4 M DTT) and incubated for 10 min at RT. Next, 4 μL of 10× Glycobuffer (0.5 M sodium phosphate, pH 7.5), 4 μL of 10% Tween-20 and 10 μL of water were added. Finally, 2 μL of PNGase F (Sigma) was added and the reaction was carried out for 16 h at 37°C.

[5] = system: A431/CCKBR-tumor bearing nude mice; test: Tumor volume, mouse weight and toxicity during treatment; type: in vivo
A431/CCKBR tumors = test: HE staining and immunohistochemistry of tumor sections; type: in vivo, mouse
Experimental: Formalin-fixed, paraffin tumor sections were deparaffinized, rehydrated and pretreated in 10 mM citrate buffer, pH 6.0, at 98 °C for 60 minutes, followed by incubation with 4% fat-free milk in PBS for 90 minutes. For avidin/biotin blocker treatment (Invitrogen) and detection, the ABC method was used. For monoclonal antibody against Ki67 (SP6, Thermo Scientific) and CD34 (cloneQBend/10; Dako) signals were recorded using an automated instrument reagent system (Discovery XT, Ventana Medical System Inc.). Images of hematoxylin-counterstained sections were captured (Nikon, YTHM) and analyzed using ImageAccess Enterprise7 and ImageJ software. Tumor necrotic areas and vascularization were analyzed in 10 (RAD001 and PBS) and 8 (metformin) images, whereas Ki67 and mitotic index in 15 (RAD001 and PBS) and 12 (metformin) images.

A431/CCKBR cells [6] = conditions: 100 nM RAD001 or 10 mM metformin
Experimental: Radioactive medium (and PBS wash) was collected and the cells were washed 2× with glycine buffer (pH=2) for 5 min at RT followed by a dissolving step in 1 M NaOH for 15 min at 37°C. All 3 fractions (medium/PBS; glycine; dissolved cells) were measured on Cobra II Auto-Gamma counter (Packard). For the cell uptake analysis, the PBS-washed cells were directly dissolved in 1M NaOH, or combined glycine-wash and 1M NaOH dissolved cells, were measured on the Gamma counter. […] Protein concentration of cell lysates was measured by using NanoPhotometer® UV-Vis P-Class (Implen).

[7] = system: A431/CCKBR-tumor bearing nude mice
[8] = clinical study; cited from earlier work
From the text: Overexpression of G-protein coupled receptors (GPCRs) that selectively bind their peptide ligands allowed the development of the peptide receptor radionuclide therapy (PRRT) for human cancers. One of the most important properties of PRRT is a high uptake ratio of tumor-to-healthy-tissue in terms of radiolabeled ligands. Consequently, the molecular strategies which increase uptake of radiopharmaceuticals selectively in cancer tissue while sparing healthy organs from cytotoxic side effects have huge potential to improve PRRT efficacy. Activated GPCRs by agonistic ligand-based radiotherapeuti ...

in vivo = conditions: female, CD-1 nude, mouse, iv, 3 pmol, total radioactivity, Uptake [% i.A./g], PBS group, control PBS-treated mice, 3 pmol i.v., 4 h post injection, mean
[9] = 10 μM kinase inhibitor, MTS absorbance at 570 nm, reference 650 nm, mean of triplicate
[10] = co-injection of 60 nmol minigastrin

## O=C(O)c1ccc2nc(-c3ccccc3)c(-c3ccccc3)nc2c1 [BML-257]
A431/CCKBR cells [1]
  Uptake (ratio): 1.26
A431/CCKBR cells [2]; [9]
  Proliferation [A570]: 0.95
A431/CCKBR cells [2]
  Proliferation (ratio): 0.98

## CN(C)C(=N)N=C(N)N [Metformin, metformin]
A431/CCKBR cells [3]; 100 nM RAD001 or 10 mM metformin, 20 h
  total protein level compared to control: 80%
[4]
  phosphorylation of S6 at Ser235/236 (WB): lack of mTORC1-regulated phosphorylation
[5]; 3 daily doses
  mouse weight: no effects
  tumor volume: no effects
[5]; 5 days daily treatment
  mouse weight: no effects
  tumor volume: no effects
A431/CCKBR tumors; 5 days treatment, mean ± SD
  mitotic index: did not cause a significant change
A431/CCKBR tumors; HE and CD34, five-day treatment
  tumor vascularization: No significant difference
A431/CCKBR tumors; HE stain, 5 days treatment, mean ± SD
  necrosis (necrotic area): did not show a significant difference
A431/CCKBR tumors; IHC, 5 days treatment, mean ± SD
  Ki67 positive cells: did not cause a significant change
A431/CCKBR cells [6]; 20 h
  internalization ratio [treatment/control]: 1.3
A431/CCKBR cells [6]; 20 h treatment, 0.3 pmol radioligand 1 h, triplicate
  [177Lu]Lu-PP-F11N internalization in treated cells: 21.1%
[7]; three doses of metformin or one RAD001 dose
  influence on [177Lu]Lu-PP-F11N tumor uptake: only moderately and did not reach statistical significance

## CO[C@H]1C[C@@H]2CC[C@@H](C)[C@@](O)(O2)C(=O)C(=O)N2CCCC[C@H]2C(=O)O[C@H]([C@H](C)C[C@@H]2CC[C@@H](O)[C@H](OC)C2)CC(=O)[C@H](C)/C=C(\C)[C@@H](O)[C@@H](OC)C(=O)[C@H](C)C[C@H](C)/C=C/C=C/C=C/1C [Rapamycin]
A431/CCKBR cells [1]
  Uptake (ratio): 1.24
A431/CCKBR cells [2]; [9]
  Proliferation [A570]: 0.91
A431/CCKBR cells [2]
  Proliferation (ratio): 0.94
A431/CCKBR cells [3]; 10 µM, lysates of validation experiment
  decrease of total protein level: 26%

## N#CC(C#N)=Cc1cc(O)c(O)c(O)c1 [TYRPHOSTIN 25]
A431/CCKBR cells [2]; [9]
  Proliferation [A570]: 1.12

## N#C/C(=C\c1ccc(O)c(O)c1)C(N)=O [TYRPHOSTIN 46]
A431/CCKBR cells [2]; [9]
  Proliferation [A570]: 1.04

## N#C/C(=C\c1ccc(O)c(O)c1)C(N)=S [TYRPHOSTIN 47]
A431/CCKBR cells [2]
  Proliferation [A570]: 0.98

## N#CC(C#N)=C(N)/C(C#N)=C/c1cc(O)c(O)c(O)c1 [TYRPHOSTIN 51]
A431/CCKBR cells [2]; [9]
  Proliferation [A570]: 1.05

## N#CC(C#N)=Cc1cc(O)c(O)c([N+](=O)[O-])c1 [TYRPHOSTIN AG 1288]
A431/CCKBR cells [2]; [9]
  Proliferation [A570]: 0.97

## Cc1cc2ncc(-c3ccccc3)nc2cc1C [TYRPHOSTIN AG 1295]
A431/CCKBR cells [2]; [9]
  Proliferation [A570]: 0.94

## COc1cc2ncnc(Nc3cccc(Cl)c3)c2cc1OC [TYRPHOSTIN AG 1478]
A431/CCKBR cells [2]; [9]
  Proliferation [A570]: 0.72

## CC1=C(O)C(=O)[C@@H]2O[C@@H]2C1=O [Terreic acid]
A431/CCKBR cells [2]
  Proliferation [A570]: 1.06

## N#CC(=C(/N)Sc1ccccc1N)/C(C#N)=C(/N)Sc1ccccc1N [U-0126]
A431/CCKBR cells [2]; [9]
  Proliferation [A570]: 0.87

## COC[C@H]1OC(=O)c2coc3c2[C@@]1(C)C1=C(C3=O)[C@@H]2CCC(=O)[C@@]2(C)C[C@H]1OC(C)=O [Wortmannin]
A431/CCKBR cells [2]; [9]
  Proliferation [A570]: 0.86

## C[C@@H](N)[C@H]1CC[C@H](C(=O)Nc2ccncc2)CC1.Cl.Cl [Y-27632·2HCl]
A431/CCKBR cells [2]; [9]
  Proliferation [A570]: 1.02

## Cc1ccc(NC(=O)c2cccc(N(C)C)c2)cc1NC(=O)c1ccc(O)cc1 [ZM 336372]
A431/CCKBR cells [2]; [9]
  Proliferation [A570]: 0.87

## C=CC(=O)c1ccc2ccccc2c1 [ZM 449829]
A431/CCKBR cells [2]; [9]
  Proliferation [A570]: 0.98

## CCCC[C@H](NC(=O)[C@H](Cc1c[nH]c2ccccc12)NC(=O)CNC(=O)[C@H](Cc1ccc(O)cc1)NC(=O)[C@H](C)NC(=O)[C@@H](CCC(=O)O)NC(=O)[C@@H](CCC(=O)O)NC(=O)[C@@H](CCC(=O)O)NC(=O)[C@@H](CCC(=O)O)NC(=O)[C@@H](CCC(=O)O)NC(=O)[C@@H](CCC(=O)O)NC(=O)CN1CCN(CC(=O)O)CCN(CC(=O)O)CCN(CC(=O)O)CC1)C(=O)N[C@@H](CC(=O)O)C(=O)N[C@@H](Cc1ccccc1)C(N)=O [[^177Lu]Lu-PP-F11N, [^177Lu]Lu-DOTA-(DGlu)6-Ala-Tyr-Gly-Trp-Nle-Asp-Phe-NH2, metal not drawn]
[8]
  median tumor-to-kidney dose ratio: 11.6
  tumor-to-stomach dose ratio: 3.34
In vivo; Blood
  tissue uptake at 4 h: 0.043 %ID/g
In vivo; Bone
  tissue uptake at 4 h: 0.37 %ID/g
In vivo; Brain
  tissue uptake at 4 h: 0.03 %ID/g
In vivo; Intestines
  tissue uptake at 4 h: 0.23 %ID/g
In vivo; Kidney
  tissue uptake at 4 h: 3.07 %ID/g
In vivo; Liver
  tissue uptake at 4 h: 0.17 %ID/g
In vivo; Lung
  tissue uptake at 4 h: 0.08 %ID/g
In vivo; Pancreas
  tissue uptake at 4 h: 0.12 %ID/g
In vivo; Spleen
  tissue uptake at 4 h: 0.1 %ID/g
In vivo; Stomach
  tissue uptake at 4 h: 1.01 %ID/g
In vivo; Tumor, n=6
  tissue uptake at 4 h: 10.9 %ID/g

## BML-265
A431/CCKBR cells [2]; [9]
  Proliferation [A570]: 0.78

## LEEEEEAYGWMDF [minigastrin]
[7]; [10]
  [177Lu]Lu-PP-F11N kidney uptake with blocking: not affected
  [177Lu]Lu-PP-F11N uptake in the tumor and stomach with blocking: reduced
